Measurements reported in patent EP2181589A1, “Neurotoxic sterol glycosides” (Shaw, Christopher Ariel, priority 2008, dated 2010).
Entries after “also recorded” stand apart in the source; their conditions may differ. Marks after values point to notes of the source that are not given here.

Experiments:
Lipid deposits = test: Oil red O histochemistry (lipid deposits); format: in vivo, CD-1 mice
Experimental: (§1) The synthetic SG was mixed with finely ground Purina Chow mouse pellets (Mouse Diet™, Purina) to create the experimental pellets with a SG content of 1000 µg per pellet. Dry materials were blended with a sterile silicon spatula. For every 5 g of standard feed, 2.5 mL of doubly-distilled water (dd)H2O was added and the dough was kneaded and round up into pellets. A single sterol glucoside containing pellet was placed in the feeding tray each morning before the addition of regular mouse chow (ad libitum). All experimental pellets were entirely consumed by the mice each day. Control mice were fed standard mouse chow pellets of identical weight with no additives. SG feeding was conducted daily for 15 weeks and mice were behaviorally monitored until sacrifice at 35 weeks (time point 1) or 52 weeks (time point 2).
Tissue-mounted slides were processed to evaluate lipid distribution with light microscopy with a protocol adapted from Dr. Roy Ellis (IMVS Division of Pathology, The Queen Elizabeth Hospital, Woodville, South Australia). First, an oil red O stock solution was prepared 2 hours prior to execution of the histochemical procedures. The oil red O stock stain solution was made by mixing oil red O (0.5 g, Sigma-Aldrich, Oakville, ON, Canada) and isopropanol (100 mL, Fisher Scientific, Nepean, ON, Canada) over a 40°C water bath. Immediately prior to beginning the oil red O histochemical procedures, the oil red O working solution was made by combining 20 mL of distilled water for every 30 mL of oil red O stock stain solution. […] Slide-mounted sections were rinsed in coplin jars for 15 minutes at RT in three changes of PBS. Sections were then rinsed at RT with 60% isopropanol for 5 minutes. The spinal cord sections were then stained with a freshly prepared working solution of oil red O for 20 minutes and then rinsed with 60% isopropanol. Nuclear counterstaining was achieved by staining the sections with haematoxylin (haematoxylin, 7211, Richard Allan Scientific, Kalamazoo, MI, USA) for 1 minute. Finally, the sections were rinsed with distilled water, dried under a fume hood and cover-slipped with Entellen (Merck, Darmstadt, Germany).
The numbers of immunoreactive somata or inclusions were counted across the ventral horn of the spinal cord, across brain hemispheres, or per dorsal or ventral root with the 40x objective lens in a 600 µm / 600 µm area within region perimeters defined by a mouse brain atlas (2001). For each animal, eight cross-sections per spinal cord or brain region were studied. An average of both the right and left ventral horn for each of the eight cross sections was generated giving a final averaged number for each animal in each of the spinal cord areas. For quantification of the level of mitochondrial activity (cytochrome c oxidase labelling) in the lumbar spinal cord or tyrosine hydroxylase immunoreactivity in the substantia nigra pars compacta and striatal sections, images captured using the Motic B5 Professional Series 3.0 microscope (Motic Instruments Inc., Richmond, ON) and analyzed using Motic B5 Professional, Motic Images Advanced 3.0 (Motic Instruments Inc., Richmond, ON) were scanned into a TIFF format file and analysed using the NIH Image J 1.37 software to measure density levels of antibody labelling. Eight to 12 sections from each mouse per region of interest were included.

CD-1 mice [1] = test: Leg extension reflex test; format: in vivo
Experimental: (§2) Five-month old male CD-1 mice (30.1-35.7 g, 7.5 cm - 8.8 cm) were purchased from Charles River (Wilmington, MA). Adult mice were chosen to mimic the mean age of onset of ALS-PDC (Kurland, 1988; Kurland et al., 1994). Thirty mice for the SG study were randomly divided into 2 groups (14 control and 16 experimental animals). All animals were housed singly in a virus-free barrier facility in a room maintained at 22°C under a 12 hour light/dark cycle. The mice were provided ad libitum access to food and water.
as §1, with “All experimental pellets were entirely consumed by the mice each day. Control mice were fed standard mouse chow pellets of identical weight with no additives.” left out
Leg extension reflex test: The leg extension reflex test was used as a measure of motor neuron dysfunction (Barneoud and Curet, 1999). […] The leg extension reflex was measured three times per week in each animal. […]

CD-1 mice [2] = test: Gait analysis (Digigait); format: in vivo; conditions: SG-fed vs control
Experimental: as §2, §1
Gait analysis: In order to examine spatial and temporal indices of front and hind limb stepping patterns during forward locomotion, mice were required to run on a colorless (PVC and polycarbonate), straight, level, walled motorized belt (Digigait™, treadmill motor: DC, HP; torque 45 1b-in, Mouse Specifics, Inc., Boston, MA, USA) set at 30 rpm with a no-flicker light source (90-250 VAC; 25 kHZ, Mouse Specifics, Inc., Boston, MA, USA) and camera mounted ventrally (relative to the animal) to facilitate continuous ventral plane videography (up to 150 frames per second) of activity. Gait indices were analyzed with the complementary digital imaging software (Digigait™, Mouse Specifics, Inc., Boston, MA, USA) as per manufacturer's instructions. Briefly, the software converts "paw prints" into a digital signal and generates a temporal record of paw placement and breaks down the digital file into three main parameters: stride duration, swing duration, and stance duration. The stance duration is the period during which the paw of a limb is in contact with the belt surface. The software further subdivides the stance duration into two components: braking duration (the increase in paw contact area over a discrete time interval) and propulsion duration (the decrease in paw contact area over a discrete time interval). The swing duration is the period of time that a paw is not in contact with the belt surface. In addition to these factors, over a dozen additional characteristics, including stance factor, step-sequence pattern, propulsion, and cadence are generated to provide a spreadsheet format report of twenty-five gait indices.

[3] = SG-fed vs control, time-point 2, 52 wk

CCC(C=CC(C)C1CCC2C3CC=C4CC(OC5OC(CO)C(O)C(O)C5O)CCC4(C)C3CCC12C)C(C)C (stereo not shown) [SG]
accumulation of lipid deposits over time, lumbar spinal cord (Lipid deposits; SG-fed animals, 35 to 52 weeks): did not experience an accumulation of deposits over time
lipid deposits, time-dependent effects in the dorsal or ventral roots (Lipid deposits; SG-fed animals, 35 to 52 weeks): did not show time-dependent effects
Lipid deposits, DR (Lipid deposits; SG-fed over time, 35 to 52 wk): SG-fed DR over time: ns, p=0.8062
Lipid deposits, Lsc (Lipid deposits; SG-fed over time, 35 to 52 wk): SG-fed Lsc over time: ns, p=0.4864
Lipid deposits, VR (Lipid deposits; SG-fed over time, 35 to 52 wk): SG-fed VR over time: ns, p=0.5478
lipids in the dorsal roots (Lipid deposits; SG-fed vs control, 35 weeks): not significant
lipids in the ventral spinal roots (Lipid deposits; SG-fed vs control, 35 weeks): +10%
lipid deposits, inter-group differences in lumbar spinal cord, dorsal root, ventral root (Lipid deposits; SG-fed vs control, 52 weeks): statistically significant inter-group differences were not found
Lipids deposits Lsc VH (Lipid deposits; [3]): Lipids deposits Lsc VH: +10%*
Leg extension reflex test performance (score) (CD-1 mice [1]; SG-fed animals, soon after 35 weeks / during the study): steady decline in performance; also recorded: decreased
Leg extension (CD-1 mice [1]; [3]): Leg extension* (*p<0.05)
Forelimb braking (CD-1 mice [2]; time-point 1, 35 wk): Forelimb braking (ns)
Forelimb propulsion (CD-1 mice [2]; time-point 1, 35 wk): Forelimb propulsion (ns)
Forelimb stance width (CD-1 mice [2]; time-point 1, 35 wk): Forelimb stance width (ns)
Forelimb stride length (CD-1 mice [2]; time-point 1, 35 wk): Forelimb stride length (ns)
Hind limb braking (CD-1 mice [2]; time-point 1, 35 wk): Hind limb braking (ns)
Hind limb propulsion (CD-1 mice [2]; time-point 1, 35 wk): Hind limb propulsion (ns)
Hind limb stance width (CD-1 mice [2]; time-point 1, 35 wk): Hind limb stance width (ns)
Hind limb stride frequency (CD-1 mice [2]; time-point 1, 35 wk): Hind limb stride frequency (ns)
Hind limb stride length (CD-1 mice [2]; time-point 1, 35 wk): Hind limb stride length (ns)
Forelimb braking (CD-1 mice [2]; time-point 2, 52 wk): Forelimb braking* (*p<0.05)
Forelimb propulsion (CD-1 mice [2]; time-point 2, 52 wk): Forelimb propulsion* (*p<0.05)
Hind limb braking (CD-1 mice [2]; time-point 2, 52 wk): Hind limb braking* (*p<0.05)
Hind limb propulsion (CD-1 mice [2]; time-point 2, 52 wk): Hind limb propulsion* (*p<0.05)
Hind limb stride frequency (CD-1 mice [2]; time-point 2, 52 wk): Hind limb stride frequency* (*p<0.05)
